The values that follow are results of earlier work, collected in article PMC9604775, “Bioactive Peptides from Skipjack Tuna Cardiac Arterial Bulbs: Preparation, Identification, Antioxidant Activity, and Stability against Thermal, pH, and Simulated Gastrointestinal Digestion Treatments” (Marine Drugs, 2022).

What all share (settings): literature value; cited from earlier work
Details of data set [1]: method as in 10 sources, ref 24 = [24]; PMID 35127795; doi:10.3389/fnut.2021.813780; 24. Wang J. Wang Y.M. Li L.Y. Chi C.F. Wang B. Twelve antioxidant peptides from protein hydrolysate of Skipjack tuna ( Katsuwonus pelamis ) roe prepared by flavourzyme: Purification, sequence identifi ||| ref 43 = [43]; doi:10.1016/j.foodres.2010.02.009; 43. You L. Zhao M. Regenstein J.M. Ren J. Purification and identification of antioxidant peptides from loach ( Misgurnus anguillicaudatus ) protein hydrolysate by consecutive chromatography and electr ||| ref 44 = [44]; doi:10.1016/j.jff.2015.03.045; 44. Chi C.F. Hu F.Y. Wang B. Li T. Ding G.F. Antioxidant and anticancer peptides from protein hydrolysate of blood clam ( Tegillarca granosa ) muscle J. Funct. Foods 2015 15 301 313 10.1016/j.jff.2015 ||| ref 42 = [42]; PMID 35621976; doi:10.3390/md20050325; 42. Sheng Y. Qiu Y.T. Wang Y.M. Chi C.F. Wang B. Novel antioxidant collagen peptides of Siberian sturgeon ( Acipenser baerii ) cartilages: The preparation, characterization, and cytoprotection of H 2 ||| ref 45 = [45]; PMID 23411302; doi:10.1016/j.foodchem.2012.12.002; 45. Wang B. Li L. Chi C.F. Ma J.H. Luo H.Y. Xu Y.F. Purification and Characterization of a novel antioxidant peptide derived from blue mussel ( Mytilus edulis ) protein hydrolysate Food Chem. 2013 138 ||| ...

Details of data set [2]: method as in 10 sources, ref 51 = [51]; doi:10.1016/j.jff.2015.04.042; 51. Cai L. Wu X. Zhang Y. Li X. Ma S. Li J. Purification and characterization of three antioxidant peptides from protein hydrolysate of grass carp ( Ctenopharyngodon idella ) skin J. Funct. Foods 2015 ||| ref 42 = [42]; PMID 35621976; doi:10.3390/md20050325; 42. Sheng Y. Qiu Y.T. Wang Y.M. Chi C.F. Wang B. Novel antioxidant collagen peptides of Siberian sturgeon ( Acipenser baerii ) cartilages: The preparation, characterization, and cytoprotection of H 2 ||| ref 24 = [24]; PMID 35127795; doi:10.3389/fnut.2021.813780; 24. Wang J. Wang Y.M. Li L.Y. Chi C.F. Wang B. Twelve antioxidant peptides from protein hydrolysate of Skipjack tuna ( Katsuwonus pelamis ) roe prepared by flavourzyme: Purification, sequence identifi ||| ref 48 = [48]; PMID 31035632; doi:10.3390/md17050251; 48. Yang X.R. Qiu Y.T. Zhao Y.Q. Chi C.F. Wang B. Purification and characterization of antioxidant peptides derived from protein hydrolysate of the marine bivalve mollusk Tergillarca granosa Mar Drugs ||| ref 43 = [43]; doi:10.1016/j.foodres.2010.02.009; 43. You L. Zhao M. Regenstein J.M. Ren J. Purification and identification of antioxidant peptides from loach ( Misgurnus anguillicaudatus ) protein hydrolysate by consecutive chromatography and electr ||| ...

On the set-up of data set [3]: method as in 10 sources, ref 24 = [24]; PMID 35127795; doi:10.3389/fnut.2021.813780; 24. Wang J. Wang Y.M. Li L.Y. Chi C.F. Wang B. Twelve antioxidant peptides from protein hydrolysate of Skipjack tuna ( Katsuwonus pelamis ) roe prepared by flavourzyme: Purification, sequence identifi ||| ref 55 = [55]; doi:10.1016/j.jff.2016.06.008; 55. Pan X. Zhao Y.Q. Hu F.Y. Wang B. Preparation and identification of antioxidant peptides from protein hydrolysate of skate (Raja porosa) cartilage J. Funct. Foods 2016 25 220 230 10.1016/j.jff.2016 ||| ref 48 = [48]; PMID 31035632; doi:10.3390/md17050251; 48. Yang X.R. Qiu Y.T. Zhao Y.Q. Chi C.F. Wang B. Purification and characterization of antioxidant peptides derived from protein hydrolysate of the marine bivalve mollusk Tergillarca granosa Mar Drugs ||| ref 15 = [15]; doi:10.1016/j.jff.2018.06.014; 15. Zhao W.H. Luo Q.B. Pan X. Chi C.F. Sun K.L. Wang B. Preparation, identification, and activity evaluation of ten antioxidant peptides from protein hydrolysate of swim bladders of miiuy croaker ( Mi ||| ref 47 = [47]; PMID 35531284; doi:10.3389/fmicb.2022.791248; 47. Sun K. Gao M. Wang Y.Z. Li X.R. Wang P. Wang B. Antioxidant peptides from protein hydrolysate of marine red algae Eucheuma cottonii : Preparation, identification, and cytoprotective mechanisms on ||| ...

Details of data set [4]: method as in 5 sources, ref 41 = [41]; doi:10.1016/j.procbio.2022.01.008; 41. Wang Y.M. Li X.Y. Wang J. He Y. Chi C.F. Wang B. Antioxidant peptides from protein hydrolysate of skipjack tuna milt: Purification, identification, and cytoprotection on H 2 O 2 damaged human umbi ||| ref 44 = [44]; doi:10.1016/j.jff.2015.03.045; 44. Chi C.F. Hu F.Y. Wang B. Li T. Ding G.F. Antioxidant and anticancer peptides from protein hydrolysate of blood clam ( Tegillarca granosa ) muscle J. Funct. Foods 2015 15 301 313 10.1016/j.jff.2015 ||| ref 20 = [20]; doi:10.1016/j.jff.2014.10.027; 20. Chi C.F. Wang B. Wang Y.M. Zhang B. Deng S.G. Isolation and characterization of three antioxidant peptides from protein hydrolysate of bluefin leatherjacket ( Navodon septentrionalis ) heads J. Fu ||| ref 48 = [48]; PMID 31035632; doi:10.3390/md17050251; 48. Yang X.R. Qiu Y.T. Zhao Y.Q. Chi C.F. Wang B. Purification and characterization of antioxidant peptides derived from protein hydrolysate of the marine bivalve mollusk Tergillarca granosa Mar Drugs ||| ref 39 = [39]; PMID 31430875; doi:10.3390/antiox8080318; 39. Zhang L. Zhao G.X. Zhao Y.Q. Qiu Y.T. Chi C.F. Wang B. Identification and active evaluation of antioxidant peptides from protein hydrolysates of skipjack tuna ( Katsuwonus pelamis ) head Antioxida.

On to “GPEGPMGLE [literature antioxidant peptide from redlip croaker scales]”, for which the “EC50 DPPH·” value in data set [1] is 590 µg/mL. For the same substance, in data set [2], the “EC50 HO·” value was 450 µg/mL. The “EC50 O2^−·” value in data set [3] was 620 µg/mL.

“GFIGPTE [literature antioxidant peptide from redlip croaker scales]”: the “EC50 DPPH·” value in data set [1] is 450 µg/mL. Besides, in data set [3], the “EC50 O2^−·” value was 740 µg/mL. In the case of “YAVT [literature antioxidant peptide from Eucheuma cottonii]”, the “EC50 O2^−·” value in data set [3] was 560 µg/mL.

Take “GVPLT [literature antioxidant peptide from Navodon septentrionalis heads]”: the “EC50 ABTS^+·” value in data set [4] was 3124 µg/mL.

On to “PSYV [literature antioxidant peptide from pond loach meat]”, for which the “EC50 DPPH·” value in data set [1] was 2640 µg/mL. The “EC50 HO·” value in data set [2] was 2640 µg/mL. Turning to “YPPAK [literature antioxidant peptide from Mytilus edulis]”, the “EC50 DPPH·” value in data set [1] is 2620 µg/mL. Further, the “EC50 HO·” value in data set [2] is 228 µg/mL. In addition, the “EC50 O2^−·” value in data set [3] was 72 µg/mL.

For “YSKT [literature antioxidant peptide from Eucheuma cottonii]”, in data set [1], the “EC50 DPPH·” value is 1710 µg/mL.

Regarding “QAEP [literature antioxidant peptide from tuna roes]”, the “EC50 O2^−·” value in data set [3] was 2916 µg/mL.

As to “GFYAA [literature antioxidant peptide from Miichthys miiuy swim bladders]”, the “EC50 O2^−·” value in data set [3] is 3030 µg/mL. As to “SVTEV [literature antioxidant peptide from tuna milts]”, the “EC50 DPPH·” value in data set [1] is 890 µg/mL. Also, the “EC50 ABTS^+·” value in data set [4] was 1020 µg/mL. As to “GHHAAA [literature antioxidant peptide from tuna milts]”, the “EC50 ABTS^+·” value in data set [4] is 1120 µg/mL. In the case of “EYEA [literature antioxidant peptide from Antarctic krill]”, the “EC50 HO·” value in data set [2] was 946 µg/mL. Moreover, the “EC50 O2^−·” value in data set [3] is 793 µg/mL. “WPPD [literature antioxidant peptide from blood cockle (T. granosa)]”: in data set [1], the “EC50 DPPH·” value was 360 µg/mL. Also, the “EC50 HO·” value in data set [2] is 380 µg/mL. For the same substance, the “EC50 ABTS^+·” value in data set [4] was 540 µg/mL. For the same substance, the “EC50 O2^−·” value in data set [3] is 460 µg/mL.

As to “NADFGLNGLEGLA [literature antioxidant peptide from giant squid]”, the “EC50 HO·” value in data set [2] was 612 µg/mL. Turning to “VRDQY [literature antioxidant peptide from tuna milts]”, the “EC50 DPPH·” value in data set [1] was 880 µg/mL. Further, the “EC50 ABTS^+·” value in data set [4] is 1040 µg/mL. Regarding “EGPFGPEG [literature antioxidant peptide from redlip croaker scales]”, in data set [1], the “EC50 DPPH·” value was 370 µg/mL. Also, the “EC50 O2^−·” value in data set [3] was 470 µg/mL. As to “TTANIEDRR [literature antioxidant peptide from salmon pectoral fin]”, in data set [1], the “EC50 DPPH·” value is 2500 µg/mL. “WLDPDG [literature antioxidant peptide from T. granosa]”: in data set [2], the “EC50 HO·” value is 1540 µg/mL. Regarding “SLPY [literature antioxidant peptide from Antarctic krill]”, in data set [2], the “EC50 HO·” value is 826 µg/mL. Take “FIMGPY [literature antioxidant peptide from skate cartilages]”: in data set [3], the “EC50 O2^−·” value is 1610 µg/mL. Turning to “IELFPGLP [literature antioxidant peptide from Siberian sturgeon cartilages]”, the “EC50 DPPH·” value in data set [1] is 1380 µg/mL. Moreover, in data set [2], the “EC50 HO·” value is 1630 µg/mL. For “FYKA [literature antioxidant peptide from Eucheuma cottonii]”, the “EC50 DPPH·” value in data set [1] was 2560 µg/mL. Further, the “EC50 O2^−·” value in data set [3] was 1910 µg/mL. Turning to “PYGAKG [literature antioxidant peptide from S. niphonius skins]”, in data set [3], the “EC50 O2^−·” value is 800 µg/mL. With “LKQELEDLLEKQE [literature antioxidant peptide from Pacific oyster]”, the “EC50 HO·” value in data set [2] was 46 µg/mL. In the case of “YGPM [literature antioxidant peptide from Scomberomorous niphonius skins]”, in data set [4], the “EC50 ABTS^+·” value is 820 µg/mL. Besides, the “EC50 O2^−·” value in data set [3] is 730 µg/mL.

On to “NGLEGLK [literature antioxidant peptide from giant squid]”, for which, in data set [3], the “EC50 O2^−·” value is 420 µg/mL.

For the substance “QDHKA [literature antioxidant peptide from tuna milts]”, the “EC50 HO·” value in data set [2] is 536 µg/mL. For “VPDDD [literature antioxidant peptide from Miichthys miiuy swim bladders]”, the “EC50 O2^−·” value in data set [3] was 4110 µg/mL. As to “VGGRP [literature antioxidant peptide from grass carp skin]”, in data set [2], the “EC50 HO·” value is 2060 µg/mL.

For “EPLSD [literature antioxidant peptide from blood cockle]”, in data set [3], the “EC50 O2^−·” value is 2040 µg/mL.
